Assay results as given in patent publication US11180495B2 (Abbisko Therapeutics Co., Ltd., priority 2017, dated 2021).
Where two headings read alike, the source gives them in different places.

Experiments:
[1] = system: M-NFS-60 mouse myeloid leukemia lymphocytes; experiment: CSF-1R-related cell proliferation experiment (Cell Titer Glo); format: cell-based; settings: 72 h, M-NFS-60 cells, 3 days, CTG
Experimental: Functional effects of compounds on cell proliferation were evaluated by using Cell Titer Glo (CTG) study in the present invention. M-NFS-60 mouse myeloid leukemia lymphocytes (cat. No. CCBJ078) from National Institutes For Food and Drug Control were cultured in the incubator under conditions of RPMI 1640 (Gibco, cat. No. 11875-119), 10% fetal bovine serum (Gibco, 10099-141), human 10 ng/mL M-CSF macrophage colony-stimulating factor (R&D, cat. No. MVN0915101), 37° C. and 5% CO2. Since ATP is an index for viable cell metabolism, CTG (Promega, #G7573) reagent is a homogeneous detection method for detecting the number of viable cells in the culture by quantifying ATP. Therefore, compound-mediated inhibition for cell proliferation/survival was evaluated by quantifying ATP in cells, and the specific experimental process was as follows: • 1. The cells were plated into a tissue-culture-medium-treated 96-well plate (Costar #3904) with 5,000 cells/well/80 μL fresh culture medium: • 2. 24 hours later, 10 μL culture medium containing testing compound with 10-fold of final concentration was added to each well; • 3. 10 μL of culture medium containing M-CSF with 10-fold of the final concentration was then added to each well: • 4. dosage effect was evaluated by testing the 3-fold serial dilutions of the compound; • 5. after the cells were incubated for 3 days at 37° C. and 5% CO2, the inhibition on cell survival was quantified after 50 μL of CTG was added and the luminescence assay was performed; • 6. the compound concentration leading to half maximal inhibitory (IC50) and the compound concentration leading to absolute half maximal inhibitory (Absolute IC50) were measured by a plate reader (M1000, Tecan) and a four-parameter curve fit in Graphpad Prism 7. D. CSF-1R-Related Cell Proliferation Experiment

[2] = target: T1, CSF-1R (Homo sapiens, UniProt P07333); experiment: CSF-1R in vitro biochemical kinase study (ADP-Glo assay); settings: 3.95 nM CSF-1R, 500 μM ATP, 30° C. 60 min, read-out: Enzymatic experiment CSF-1R IC50
T1 construct: 3.95 nM of CSF-1R, 500 μM of ATP and 0.2 mg/mL of polypeptide
T1 sequence (P07333 20-972): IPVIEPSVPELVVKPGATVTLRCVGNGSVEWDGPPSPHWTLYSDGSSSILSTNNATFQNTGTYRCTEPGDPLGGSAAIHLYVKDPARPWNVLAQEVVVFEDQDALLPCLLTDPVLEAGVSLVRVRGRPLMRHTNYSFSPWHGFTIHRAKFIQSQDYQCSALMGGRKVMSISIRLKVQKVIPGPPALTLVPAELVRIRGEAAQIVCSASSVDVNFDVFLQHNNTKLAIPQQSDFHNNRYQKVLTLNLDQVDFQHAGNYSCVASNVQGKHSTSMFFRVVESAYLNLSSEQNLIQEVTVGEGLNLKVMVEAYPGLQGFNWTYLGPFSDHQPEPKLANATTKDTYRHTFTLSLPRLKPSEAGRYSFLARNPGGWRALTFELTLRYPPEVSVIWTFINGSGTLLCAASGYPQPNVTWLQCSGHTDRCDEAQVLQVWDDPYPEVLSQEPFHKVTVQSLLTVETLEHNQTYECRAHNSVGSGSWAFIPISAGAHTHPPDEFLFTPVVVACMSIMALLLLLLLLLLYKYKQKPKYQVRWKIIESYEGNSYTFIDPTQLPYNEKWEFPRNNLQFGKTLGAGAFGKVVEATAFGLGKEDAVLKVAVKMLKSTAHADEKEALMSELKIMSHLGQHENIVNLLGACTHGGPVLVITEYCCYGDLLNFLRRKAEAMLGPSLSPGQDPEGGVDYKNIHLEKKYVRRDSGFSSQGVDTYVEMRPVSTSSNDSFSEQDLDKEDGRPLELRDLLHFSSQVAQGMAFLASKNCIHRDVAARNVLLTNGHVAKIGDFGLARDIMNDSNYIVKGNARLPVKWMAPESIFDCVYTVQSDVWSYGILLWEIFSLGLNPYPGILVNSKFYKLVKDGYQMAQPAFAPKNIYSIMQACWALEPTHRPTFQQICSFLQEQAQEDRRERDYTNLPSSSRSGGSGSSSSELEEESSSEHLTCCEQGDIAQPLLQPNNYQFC
Experimental: In the present invention, the inhibitory activity of compounds against the CSF-1R activity was determined by using CSF-1R ADP-Glo assay. The compound-mediated inhibition effect was achieved by inhibiting the production of ADP from consumption of ATP, and the activities of compounds were evaluated by using the ADP-Glo kit (Promega, cat. No. V9101). The specific experimental process was as follows: • 1. The kinase reaction performed in the present invention was carried out in a 384-well plate (Perkinelmer, cat. No. 6007290), and 3.95 nM of CSF-1R, 500 μM of ATP and 0.2 mg/mL of polypeptide (Poly (Glu4, Try1), Sigma, cat. No. P0275) were respectively weighed and added to each well: • 2. following reagents were then added to each well to reach the final reaction system: 40 mM Tris, pH 7.5, 20 mM MgCl2, 0.01% Triton X-100, 0.1 mg/mL BSA, 2.5 mM DTT and 0.1% DMSO; • 3. the reaction was conducted at 30° C. for 60 min; • 4. then an equal volume of stop solution (ADP-Glo) was added to the kinase reaction system; • 5. the mixed solution was incubated at 25° C. for 60 min, and the kinase reaction was then terminated; • 6. a two-fold volume of detection reagent was then added to each well; • 7. the mixed solution was incubated at 25° C. for 30 min; • 8. the compound IC50 value was measured by using a plate reader (Tecan, M1000) and a four-parameter curve was generated in Graphpad Prism. B. KIT/PDGFRA In Vitro Biochemical Kinase Study • 1. Preparation of 1-fold kinase buffer and stop solution • 1.1 1-fold kinase buffer: 50 mM HEPES, pH 7.5, 0.0015% Brij-35. • 1.2 stop solution: 100 mM HEPES, pH 7.5, 0.015% Brij-35, 0.2% Coating Reagent #3 50 mM EDTA • 2. Preparation of compound solution • 2.1 Dilution of compound solution • 1) The final concentration of the compound solution was 40 μM. and the concentration of the prepared stock solution was 50 times of the final concentration, i.e., 2 mM. • 2) 80 μL of 100% DMSO was added to the second well of the 96-well plate, then 20 μL of 10 mM compound solution was added, and thereby 2 mM compound solution was prepared, 60 μL of 100% DMSO was added to other wells, 20 μL of compound was taken from the second well, added to the third well and diluted by 4 times. This serial 4-time dilution was conducted in sequence for the total of 10 concentrations. • 2.2 5-fold compound solution transferred to a reaction plate • 1) 10 μL of solution was taken from each well of the above 96-well plate and added to another 96-well plate, and 90 μL of kinase buffer was added. • 2) 5 μL of solution was taken from the above 96-well plate and added to a 384-well reaction plate. • 2.3 Kinase reaction • 1) KIT/PDGFRA kinase was added to the 1-fold kinase buffer solution to obtain a 2.5-fold kinase solution. • 2) FAM-labeled polypeptide and ATP were added to the 1-fold kinase buffer solution to obtain a 2.5-fold substrate solution. • 3) 10 μL of 2.5-fold kinase solution was added to the 384-well reaction plate, which already contained 5 μL of 5-fold compound in 10% DMSO. And the mixed solution was incubated at room temperature for 10 min. • 4) 10 μL of 2.5-fold substrate solution was added to the 384-well reaction plate. • 5) Kinase reaction and termination: the mixed solution was incubated at 28° C. for a certain period of time, and 25 μL of stop solution was added to stop the reaction. • 2.4 Data reading of Caliper EZ Reader II • 2.5 Calculation of percent inhibition and IC50 • 1) Percent conversion data were copied from the Caliper EZ Reader. • 2) Percent conversion was converted into percent inhibition data, wherein, max referred to percent conversion of the DMSO control, and min referred to percent conversion of the negative control without kinase activity. Percent inhibition=(max−conversion)/(max−min)*100. • 3) The IC50 value was fitted with XLFit excel add-in version 5.4.0.8: Fitting formula: Y=Bottom+(Top−Bottom)/(1+(IC50/X)^HillSlope).

[3] = system: M-07e human cytomegalic leukemia cells; experiment: KIT-related cell proliferation experiment (Cell Titer Glo); format: cell-based; settings: 72 h, M-07e cells, SCF, 3 days, CTG, read-out: Cytological experiment KIT IC50
Experimental: (§1) Functional effects of compounds on the proliferation of several cell lines were evaluated by Cell Titer Glo (CTG) studies in the present invention, and effects of the compounds on the proliferation of different cells were evaluated to determine the selectivity degree of the compounds. In the study, M-07e human cytomegalic leukemia cells (cat. No. CBP60791) from Nanjing Kebai Biotechnology Co., Ltd. were cultured in an incubator under conditions of RPMI1640 (Gibco, cat. No. 11875-119), 20% fetal bovine serum (Gibco, 10099-141), human 10 ng/mL GM-CSF granulocyte macrophage colony-stimulating factors (R&D, cat. No. 215-GM-010), 37° C. and 5% CO2; and Kasumi-1 human acute myeloblastic leukemia cells (cat. No. CBP60524) were cultured in an incubator under conditions of RPMI1640 (Gibco, cat. No. 11875-119), 20% fetal bovine serum (Gibco, 10099-141), 37° C. and 5% CO2; NCI-H1703 human non-small cell lung squamous carcinoma cells (cat. No. CBP60115) were cultured in an incubator under conditions of RPMI1640 (Gibco, cat. No. 11875-119), 10% fetal bovine serum (Gibco, 10099-141), 37° C. and 5% CO2; and MV-4-11 human acute monocytic leukemia cells (cat. No. CBP60522) were cultured in an incubator under conditions of IMDM (Invitrogen, cat. No. 12440053), 20% fetal bovine serum (Gibco, 10099-141), 37° C. and 5% CO2. Since ATP is an index for viable cell metabolism, CTG (Promega, #G7573) reagent is a homogeneous detection method for detecting the number of viable cells in the culture by quantifying ATP. Therefore, compound-mediated inhibition for cell proliferation/survival was evaluated by quantifying ATP content in cells, and the specific experimental process was as follows.
I) M-07e Human Cytomegalic Leukemia Cell: • 1. The cells were plated into a tissue-culture-medium-treated 96-well plate (Costar #3904) with 3500 cells/well/80 μL fresh culture medium, and cultured for 24 hrs; • 2. the next day, 10 μL of culture medium containing testing compound with 10-fold of final concentration was added to each well; • 3.

[4] = system: MV-4-11 human acute monocytic leukemia cells; experiment: FLT3-related cell proliferation experiment (Cell Titer Glo); format: cell-based; settings: MV4-11, 72 h, MV-4-11 cells, 3 days, CTG, read-out: Cytological experiment FLT3 IC50
Experimental: as §1
III) MV-4-11 Human Acute Monocytic Leukemia Cell • 1.

[5] = system: NCI-H1703 human non-small cell lung squamous carcinoma cells; experiment: PDGFRA-related cell proliferation experiment (Cell Titer Glo); format: cell-based; settings: 72 h, 3 days, CTG, read-out: Cytological experiment PDGFRA IC50
Experimental: as §1
II) NCI-H1703 Human Non-Small Cell Lung Squamous Carcinoma Cell • 1.

[6] = absolute half maximal inhibitory concentration, read-out: Cytological experiment CSF-1R Absolute IC50
[7] = read-out: Cytological experiment CSF1R IC50

SMILES	IC50 [1, 6] [nM]	IC50 [1, 7] [nM]	IC50 [2] [nM]	IC50 [3] [nM]	IC50 [4] [nM]	IC50 [5] [nM]
CC(C)Nc1ncc(-c2ccc(Cc3c[nH]c4ncccc34)cn2)c(=O)[nH]1 [Example 2, 5-(5-((1H-pyrrolo[2,3-b]pyridin-3-yl)methyl)pyridin-2-yl)-2-(isopropylamino)pyrimidin-4(3H)-one]	39.9	215	19.3	–	–	–
COCCOc1cnc2[nH]cc(Cc3ccc(-c4cnc(NC(C)C)[nH]c4=O)nc3C)c2c1 [Example 3, 2-(isopropylamino)-5-(5-((5-(2-methoxyethoxy)-1H-pyrrolo[2,3-b]pyridin-3-yl)methyl)-6-methylpyridin-2-yl)pyrimidin-4(3H)-one]	47.4	50.8	39.1	–	–	–
Cc1nc(-c2cnc(NC(C)C)[nH]c2=O)ccc1Cc1c[nH]c2ncc(OCCO)cc12 [Example 4, 5-(5-((5-(2-hydroxyethoxy)-1H-pyrrolo[2,3-b]pyridin-3-yl)methyl)-6-methylpyridin-2-yl)-2-(isopropylamino)pyrimidin-4(3H)-one]	210	235	36.4	–	–	–
Cc1nc(-c2cnc(NC(C)C)[nH]c2=O)ccc1C(=O)c1c[nH]c2ncccc12 [Example 6, 2-(isopropylamino)-5-(6-methyl-5-(1H-pyrrolo[2,3-b]pyridine-3-carbonyl)pyridin-2-yl)pyrimidin-4(3H)-one]	–	–	88.1	–	–	–
COC(c1ccc(-c2cnc(NC(C)C)n(C)c2=O)nc1C)c1c[nH]c2ncc(Cl)cc12 (stereo not drawn) [Example 8, 5-(5-((5-chloro-1H-pyrrolo[2,3-b]pyridin-3-yl)(methoxy)methyl)-6-methylpyridin-2-yl)-2-(isopropylamino)-3-methylpyrimidin-4(3H)-one]	–	–	331	–	–	–
Cc1nc(-c2cnc(NC(C)C)n(C)c2=O)ccc1C(O)c1c[nH]c2ncc(Cl)cc12 (stereo not drawn) [Example 9, 5-(5-((5-chloro-1H-pyrrolo[2,3-b]pyridin-3-yl)(hydroxy)methyl)-6-methylpyridin-2-yl)-2-(isopropylamino)-3-methylpyrimidin-4(3H)-one]	–	–	315	–	–	–
Cc1nc(-c2cnc(NC(C)C)n(C)c2=O)ccc1C(=O)c1c[nH]c2ncc(Cl)cc12 [Example 11, 5-(5-(5-chloro-1H-pyrrolo[2,3-b]pyridine-3-carbonyl)-6-methylpyridin-2-yl)-2-(isopropylamino)-3-methylpyrimidin-4(3H)-one]	–	–	73.4	–	–	–
Cc1nc(-c2cnc(NC(C)C)n(C)c2=O)ccc1C(C)c1c[nH]c2ncc(Cl)cc12 (stereo not drawn) [Example 12, 5-(5-(1-(5-chloro-1H-pyrrolo[2,3-b]pyridin-3-yl)ethyl)-6-methylpyridin-2-yl)-2-(isopropylamino)-3-methylpyrimidin-4(3H)-one]	296	315	289	–	–	–
CCN1CCCn2c1ncc(-c1ccc(Cc3c[nH]c4ncccc34)c(C)n1)c2=O [Example 19, 3-(5-((1H-pyrrolo[2,3-b]pyridin-3-yl)methyl)-6-methylpyridin-2-yl)-9-ethyl-6,7,8,9-tetrahydro-4H-pyrimido[1,2-a]pyrimidin-4-one]	56.4	67.4	–	978	3040	3540
Cc1nc(-c2cnc3n(c2=O)CCCN3C)ccc1C(=O)c1c[nH]c2ncccc12 [Example 24, 9-methyl-3-(6-methyl-5-(1H-pyrrolo[2,3-b]pyridine-3-carbonyl)pyridin-2-yl)-6,7,8,9-tetrahydro-4H-pyrimido[1,2-a]pyrimidin-4-one]	703	534	168	–	–	–
Cc1nc(-n2ccc3c(ncn3C(C)C)c2=O)ccc1Cc1c[nH]c2ncc(Cl)cc12 [Example 25, 5-(5-((5-chloro-1H-pyrrolo[2,3-b]pyridin-3-yl)methyl)-6-methylpyridin-2-yl)-1-isopropyl-1,5-dihydro-4H-imidazo[4,5-c]pyridin-4-one]	622	553	48.1	–	–	–
